Test [1] concerns uptake of [14C]putrescine into PC-3 cells. The class given is cell-based, human. As to conditions: PC-3 cells. The procedure: FIG. 1. Lineweaver-Burk plot of the uptake of [^14 C]putrescine by DFMO-pretreated cells. The ordinate is expressed as 1/pmol/15 min. The abscissa is expressed as 1 μM concentrations containing from 16 to 1.0 μM [^14 C]putrescine.
Fifty thousand PC-3 cells were plated in 12-well plates and 18 h later the incubation medium was removed and replaced with 1 ml or RPMI 1640 medium containing 25 mM 4-(2-hydroxyethyl)-1-piperazineethansulfonic acid buffer, 100 μM aminoguanidine, and 10% FCS. Forty-eight h later the medium was replaced with medium which contained [^14 C]putrescine in concentrations ranging from 16 to 1.0 μM with or without 5 1M 1-(4-aminobutyl) aziridine. Following incubation at 37° C. for 15 min the [^14 C]putrescine-containing medium was aspirated, and the cells were rinsed rapidly 4 times with HBSS. Following the last rinse, 1.0 ml of a solution of 0.1N NaOH was added and after a 2-h incubation at room temperature a 0.2-ml aliquot was added to 1 ml of 2% glacial acidic acid and 10 ml of Scintiverse 1 scintillation cocktail and the radioactive disintegrations were determined with a Packard Tri-Carb 300 scintillation spectrophotometer. Counting efficiency for ^14 C was 80%. Kinetic analysis of uptake was performed by graphic methods as described by Dixon and Webb, Enzymes, p. 322, New York Academic Press (1959).
In FIG. 1 a Lineweaver-Burk plot of the uptake of [^14 C]-putrescine into the PC-3 cells is presented and was used to determine the Km (intercept x axis) and Vmax (intercept y axis) for putrescine.

Test [2] relates to PC-3 human prostatic carcinoma cell line. As to the kind of experiment: cells. The class given is cell-based. The note with it: for Cell number as a percentage of the control mean cell number / Cell no.: 1 μM AZP; for Cell no.: mean ± SE; for activity at 1 µM / EC50: Homo sapiens, Prostatic carcinoma cell; for activity at 1 µM: 192 h. The protocol: FIG. 3. Effect of AZP on the growth of PC-3 cells with or without DFMO pretreatment. PC-3 cells (3×10^4) were plated in 60-mm^2 Petri dish in RPMI 1640-10% FCS and allowed to attach overnight. The following day the medium was aspirated and replaced with RPMI 1640, 10% FCS, 100 μM aminoguanidine with or without 1 mm DFMO. Forty-eight h later the medium was aspirated, the dishes were rinsed once with HBSS, and the cells were incubated with RPMI 1640-10% FCS-100 μM aminoguanidine with or without 25 μM AZP for 1 h. Following the 1-h incubation the medium was aspirated, the plates were rinsed twice with HBSS, and the incubation was continued with fresh RPMI 1640-10% FCS-100 μM aminoguanidine. At the indicated times following initial plating the cells were lifted from the plate by trypsinization and were examined for their ability to exclude trypan blue. Total cell counts were obtained with the aid of a hemocytometer, and the completeness of the removal of the cells from the dish was verified by the examination of each dish with the inverted microscope. , control; Δ, DFMO; .circle., AZP; .quadrature., DFMO+AZP. Points, means; bars, SE.
FIG. 4. Dose-effect relationship of AZP on the growth on PC-3 prostatic cancer cells. PC-3 cells (3×10^4) were plated in RPMI 1640-10% FCS in 60-mm^2 Petri dishes and allowed to attach overnight. The following day the medium was aspirated and replaced with RPMI 1640-10% FCS-100 μM aminoguanidine with or without 1 mm DFMO. Forty-eight h later the medium was aspirated, and the cells were rinsed once with HBSS and replaced with RPMI 1640-10% FCS-100 μM aminoguanidine with or without the indicated μM concentrations of AZP. After a 1-h incubation the medium was aspirated, the cells were rinsed twice with HBSS, and the incubation was continued with fresh RPMI 1640-10% FCS-100 μM aminoguanidine. Eight days following plating the cells were lifted from the plates by trypsinization and were counted with the aid of a hemocytometer and expressed as a percentage of control (100% without DFMO, 212±31×10^4; 100% with DFMO pretreatment, 219±25× 10^4 cells, respectively). , DFMO pretreated; .circle., without DFMO.
Assays of cell growth were performed by plating 3×10^4 PC-3 cells in RPMI 1640 medium with 10% FCS and allowing them to attach overnight. The following morning the medium was replaced with incubation medium consisting of RPMI 1640, 10% FCS, 100 μM aminoguanidine, 100 units/ml of penicillin, 100 μg/ml of streptomycin, and 2 mM glutamine, with or without 1 mM difluoromethylornithine. Two days later the medium was aspirated and replaced with or without 1-(4-aminobutyl) aziridine at the designated concentration usually for 1 h or for the designated length of time. Following the 1-h incubation, the medium of all groups was aspirated and the dishes were rinsed with HBSS and replaced with fresh incubation medium. Either daily or 8 days following plating, the Petri dishes were rinsed with HBSS and the cells were lifted from the plate by trypsinization. The dishes were examined for completeness of cell removal by examination with an inverted microscope. The cells were counted with a Zeiss microscope using a hemocytometer. Tumor cell population doubling time was determined by ploting the natural logarithm (ln) of the number of cells versus the days following plating. The slope of this line was determined using the Memorial Sloan-Kettering Cancer Center Clin computer system statistical analysis package. Doubling time (DT) was determined as ln 2/slope=DT. Statistical differences in cell number between groups were determined by Student's t statistic with the aid of the Memorial Sloan-Kettering Cancer Center Clin computer using the statistics program.
^a Thirty thousand PC3 cells were plated in 60mm^2 Petri dishes i
RPMI 164010% FCS. The next day the medium was aspirated and replaced with
RPMI 164010% FCS medium with 100 μM aminoguanidine with or without 1 m
DFMO. Fortyeight h later the medium was aspirated. […]

Where [3] appears, read: 2 h incubation, DFMO pretreated, day 8.
Setting [4] is: 4 h incubation, DFMO pretreated, day 8.

Where two headings read alike, the source gives them in different places.

`NCCCCN1CC1` [AZP, 1-(4-aminobutyl) aziridine]: the “Type of inhibition of putrescine uptake” value in test [1] is given as “consistent with competitive inhibition”. Further, the Ki in test [1] (with or without difluoromethylornithine pretreatment, 5 1M AZP, read-out: Apparent Ki for inhibition of putrescine uptake) amounted to 1000 nM. Moreover, the “Cell number as a percentage of the control mean cell number” value in test [2] (1 h incubation, DFMO pretreated, day 8) is 73%; in test [2] (setting [3]) it was 52%; in test [2] (setting [4]), 32%; in test [2] (8 h incubation, DFMO pretreated, day 8), roughly 9%; in test [2] (24 h incubation, DFMO pretreated, day 8) it was 0.9%. Moreover, the Cell no. was 236 ± 8 × 10^-4 in test [2] (1 h incubation, no DFMO (Control), day 8); 114 ± 10 × 10^-4 in test [2] (setting [3]); 202 ± 11 × 10^-4 in test [2] (2 h incubation, no DFMO (Control), day 8); 70 ± 8 × 10^-4 in test [2] (setting [4]); 122 ± 16 × 10^-4 in test [2] (8 h incubation, no DFMO (Control), day 8); 30 ± 11 × 10^-4 in test [2] (24 h incubation, no DFMO (Control), day 8). For the same compound, the “Cell no. as a percentage of control” value in test [2] (DFMO-pretreated PC-3 (1 mM, 48 h), single agent 1 h (Put 100 μM or AZP 10 μM), day 8) came out at 9%. Also, the activity at 1 µM in test [2] (read-out: Cell number as a percentage of the control mean cell number, 1 μM AZP, 1 h incubation, no DFMO (Control), day 8) is 98%; in test [2] (read-out: Cell number as a percentage of the control mean cell number, 1 μM AZP, 2 h incubation, no DFMO (Control), day 8), 84%; in test [2] (read-out: Cell number as a percentage of the control mean cell number, 1 μM AZP, 4 h incubation, no DFMO (Control), day 8) it was 66%; in test [2] (read-out: Cell number as a percentage of the control mean cell number, 1 μM AZP, 8 h incubation, no DFMO (Control), day 8), 51%; in test [2] (read-out: Cell number as a percentage of the control mean cell number, 1 μM AZP, 24 h incubation, no DFMO (Control), day 8), roughly 12%. The EC50 in test [2] (read-out: 50% effective dose (cell growth), PC-3, 1 h exposure, counted 8 days after plating, 1 mM DFMO pretreatment 48 h) amounted to 2.1 µM; in test [2] (read-out: 50% effective dose (cell growth), PC-3, 1 h exposure, counted 8 days after plating, without DFMO), 18 µM. For the same compound, the “Cells per dish on day 8 following plating” value in test [2] (PC-3, 3×10^4 plated, ±1 mM DFMO 48 h, ±25 μM AZP 1 h, mean±SD of triplicates) was 123±10 ×10^4 cells per dish. Moreover, the Doubling time in test [2] (PC-3, 25 μM AZP 1 h or 1 mM DFMO 48 h, mean±SE) was 1.53 ± 0.06 days. In addition, the “Growth-inhibitory activity toward PC-3 cells (in words)” value in test [2] (brief 1-h exposure) is recorded as “definitely growth inhibitory”.

Values taken from patent US4925835A, “Aziridinyl putrescine containing compositions and their uses in treating prostate cancer” (priority 1987, dated 1990).
